We go through 1 compound from patent US5498627A, “Octahydro-2-naphthalenecarboxylic acid derivative, its production and use” (Takeda Chemical Industries, Ltd., priority 1994, dated 1996).

In brackets after ≈: the same amount, converted by molar mass.

One data set is described as follows: Solubility. The class given is physicochemical.
Data set [1] deals with human fibrosarcoma strain HT-1080. Description: In vivo tumor growth inhibitory test. The conditions noted are these: 50 mg/kg subcutaneously daily for 4 days beginning 10 days after transplantation; tumor size 18 days after transplantation; HT-1080 in nude mice. As for the experimental part: Cells of human fibrosarcoma strain HT-1080 (2×10^6 cells per mouse) were subcutaneously transplanted to nude mice. Three mice were used for each treated group. The compound TAN-1813 (50 mg/kg) was subcutaneously administered to the mice daily for 4 days beginning 10 days after the transplantation. Anti-tumor activity was evaluated by measuring tumor size 18 days after the transplantation of the cancer cells. Average tumor sizes of 3 mice in the untreated (C) and the compound TAN-1813-treated (T) group were measured, to determine the tumor growth inhibitory activity. The tumor size (mm^3) was calculated from the formula: 0.5×a×b^2 by measuring the major axis (mm) (a) and minor axis (mm) (b) with a calibrater.

The target in a further data set is T1, Farnesyltransferase (Rattus norvegicus, UniProt Q02293+Q04631).
T1 construct: Farnesyltransferase was prepared from rat brains; from tissue; host or cells: brain of male SD rats, 6 weeks old (Charles River); dialysed 30-50% ammonium sulfate fraction, crude enzyme solution
Briefly: Farnesyltransferase-inhibitory test (FT Assay Kit, SPA). The class given is biochemical. The conditions noted are these: crude enzyme from rat brains; biotin-modified human lamin B C-terminal peptide, 3H-farnesylpyrophosphate; 37° C., 1 hour; read-out: concentration inhibiting farnesyltransferase activity by 50% (converted). As for the experimental part:
Farnesyltransferase was prepared from rat brains according to the method of Y. Reiss et al. (Cell 62, 81 (1990)) and all of the following procedures were performed at 4° C. That is, brains were removed from SD rats (male, 6 weeks old, Charles River) and sliced with a pair of scissors. Then 50 mM tris-hydrochloric acid buffer (pH 7.5)(2 ml per brain) containing 1 mM EDTA, 1 mM EGTA, 0.2 mM phenylmethylsulfonyl fluoride and 0.1 mM leupeptin was added. The mixture was homogenized with a Teflon homogenizer (manufactured by Hamada Rika, Japan) in ice. The extract was centrifuged at 60,000×g for 70 minutes. From the resulting supernatant, the precipitate fraction from 30 to 50 W/V % concentration of ammonium sulfate was recovered, and dialyzed overnight against 20 mM tris-hydrochloric acid buffer (pH 7.5) containing 1 mM dithiothreitol and 20 μM zinc chloride. The dialysed solution was centrifuged at 15,000×g for 10 minutes. […]
Farnesyltransferase activity was determined using FT Assay Kit (manufactured by Amersham) as follows. […] The radioactivity produced by attachment of the ^3 H-farnesylated peptide to the SPA beads was measured with a scintillation counter to determine the amount of the ^3 H-farnesylated peptide. The farnesyltransferase-inhibitory activity of the compound TAN-1813 was calculated from the counts in the presence and absence of the compound TAN-1813.

The test system of the next data set is NIH3T3/K-ras cells. Briefly: Cell growth-inhibitory test (MTT). The class given is cell-based. The conditions noted are these: Mus musculus, NIH3T3, 72 h, 3 days incubation, read-out: concentration inhibiting the growth of NIH3T3/K-ras cells by 50%. As for the experimental part:
The cell growth-inhibitory activity of the compound TAN-1813 was determined according to a modified method of Mosmann (Journal of Immunological Methods 65, 55 (1983) ) by using a K-ras transformant (NIH3T3/K-ras) of mouse embryonic fibroblast strain NIH3T3. That is, NIH3T3/K-ras cells were suspended in a medium at a cell density of 3×10^4 /ml. The suspension (0.1 ml per well) was dispensed into each well of a 96-well flat-bottomed plate (manufactured by Nunc) containing a solution (10 μl) of varying concentrations of the compound TAN-1813 dissolved in phosphate-buffered saline (PBS). The medium was Dulbecco modified Eagle's minimum essential medium (Whittaker Bioproducts, U.S.A.) containing 10 V/V % fetal calf serum (FCS, Whittaker Bioproducts, U.S.A.). The above plate was incubated for 3 days at 37° C. and 5% CO2. Then, 25 μl of tetrazolium salt MTT (Sigma, U.S.A.) solution (5 mg/ml) dissolved in PBS was added to each well. After incubation for 4 hours, 0.1 ml of 10% SDS solution dissolved in 0.01N hydrochloric acid was added to each well, and the plate was incubated overnight at 37° C. and 5% CO2. Absorbance at 620 nm was measured using Titertek Multiscan Spectrophotometer (Flow, U.S.A.). The growth inhibitory activity (%) was calculated from the absorbance values in the presence and absence of the compound TAN-1813.

Regarding `C=CC(CCCCC)C1=C(C(=O)C2C(C)C=CC3(O)CC(C(=O)O)CC(C)C23)C(=O)NC1=O` (centres unmarked) [TAN-1813, 5-[2,5-dihydro-4-(1-octen-3-yl)-2,5-dioxo-1H-pyrrole-3-carbonyl]-8a-hydroxy-4,6-dimethyl-1,2,3,4,4a,5,6,8a-octahydro-2-naphthalenecarboxylic acid], the Solubility result in “Solubility” (in methanol, ethyl acetate, chloroform, and dimethyl sulfoxide) is “Readily soluble”; in the data set “Solubility” (in water, and hexane), “Slightly soluble”. For the same compound, in data set [1], the “tumor size ratio (T/C×100)” value is on record as 46%. Further, the IC50 was 26.2 µM on Farnesyltransferase and 0.4 µg/mL (≈ 0.874 µM) with NIH3T3/K-ras cells.
